{"source": "patent US7094789B2", "about": "“5-substituted isoquinoline derivatives” (Asahi Kasei Pharma Corporation, priority 2002, dated 2006)", "key": {"[1]": {"target": "T1, myosin light chain phosphorylation enzyme (MLCK) (Gallus gallus, UniProt P11799)", "T1 construct": "purified from chicken gizzard smooth muscle by a conventional method; from tissue; host or cells: chicken gizzard smooth muscle", "assay": "Action on myosin light chain phosphorylation enzyme (MLCK) activity", "format": "biochemical, chicken", "conditions": "for IC50: MLCK from chicken gizzard smooth muscle, ELISA, 100 μM ATP, read-out: Myosin light chain phosphorylation enzyme inhibitory action IC50; for inhibition of MLCK: result in words", "procedure": "A myosin light chain phosphorylation enzyme (MLCK) was purified from chicken gizzard smooth muscle by a conventional method (Yoshida, M., et al., J. Biochem., 99, 1027–1036 (1986)). The myosin regulatory light chain as a substrate was purified from the chicken gizzard smooth muscle by a conventional method (Grand, R. J., et al., Biochem. J., 211, 267–272 (1983)). The MLCK activity was measured by ELISA using pLC1 described in Test Example 1 (Sakurada, K., et al., J. Biochem., 115, 18–21 (1994)). The myosin regulatory light chain was diluted in phosphate-buffered saline (PBS, Sigma) to a concentration of 5.0 µg/ml, added to 96-well Immunoplate (Nunc) in a volume of 100 μl per well and left stand overnight at 4° C. Each well was washed with PBS, and 25 mM Tris/HCl buffer containing 100 μM ATP, 3 mM MgCl2, 1 mM CaCl2, 100 ng/ml of calmodulin (Sigma) and 100 ng/ml of MLCK (pH 7.4, Buffer A) was added to each well and incubated at 30° C. for 10 minutes. In a volume of 100 μl each of 20% aqueous phosphoric acid solution was added to each well to terminate the enzymatic reaction. Each well was washed with 25 mM Tris/HCl buffer (TTBS) containing 0.1% Tween 20, and then 100 μl each of pLC1 described in Test Example 1 was added to each well and incubated at room temperature for 90 minutes.\nEach well was washed with TTBS, and then 100 μl of the HRP-labeled rabbit anti-mouse IgG antibodies (Bio-Rad) were added to each well and incubated at room temperature for 90 minutes. Each well was washed with TTBS, and then 25 mM citrate buffer (pH 5.0) containing orthophenylenediamine (Sigma) as a substrate of HRP and aqueous hydrogen peroxide (0.03%) was added in a volume of 100 μl per well and incubated at room temperature for 5 minutes. 50 μl of 4 N sulfuric acid was added to each well to terminate the reaction, and then absorbance was measured by using an immunoplate reader (Bio-Rad)."}, "[2]": {"test_system": "thoracic aorta constricted with phenylephrine", "assay": "Vasoconstriction inhibitory action (Test Example 2)", "design": "species or system Rats (Wistar)", "conditions": "result in words; rat thoracic aorta, phenylephrine", "from_the_text": "Rats (Wistar, 11-week old) were bleeded to death and laparotomized to take out the thoracic aorta. That aorta was cut into a ring of a length of about 3 mm in a conventional manner (Asano, T., et al., J. Pharmacol. Exp. Ther., 241, pp. 1033–1040 (1987)) and hung in 10-ml organ bath filled with Krebs-Hensright nutrient solution bubbled with a mixed gas of 95% O2 and 5% CO2. One end of the blood vessel was connected to an isometric transducer (FD Pickup TB-912T, Nihon Kohden) and applied with 2.5 g of resting tension, and constriction and relaxation reactions of the aorta were recorded. The aorta was constricted with phenylephrine (1 μM, Sigma) and then added with a test compound (1 μM), and the vasoconstriction inhibitory action thereof was observed. The vasoconstriction inhibitory actions of the test compounds are shown in Table 6 mentioned below as the relaxation ratios, which are based on the vasoconstriction with phenylephrine immediately before the addition of the test compound taken as 100%."}, "intraocular pressure": {"test_system": "intraocular pressure", "assay": "Intraocular pressure reducing action (Test Example 4)", "format": "in vivo, Japanese white rabbit", "conditions": "for inhibition in vivo at 1 %, 50 µL: Oryctolagus cuniculus, topical, 1% aqueous solution, 50 μl dropped to the left eye, after 2 hours, read-out: Intraocular pressure reducing action (reduction ratio) (%); for intraocular pressure reducing activity: result in words, rabbit", "procedure": "A Japanese white rabbit having a body weight of about 2 kg was placed in a positioner and naturalized for one week before the experiment. An ophthalmologic local anesthesant (Benoxil) was administered to the left eye, and then intraocular pressure was measured by using a tonometer (Classic 30, Solan). The initial value of the intraocular pressure was measured, then 50 μl of a test compound (1% aqueous solution) was dropped to the left eye, and after 2 hours, the intraocular pressure was measured. The intraocular pressure reducing action of the test compounds is shown in Table 7 mentioned below as ratios (%) of reduction of intraocular pressure based on the initial value of the intraocular pressure."}}, "note": "Structures can show the parent of a compound that is named as a salt."}
{"smiles": "NCCCN(CCCc1ccccc1)S(=O)(=O)c1cccc2cnccc12", "note": "[Example 1, N-[(5-Isoquinolyl)sulfonyl]-N-(3-phenylpropyl)-1,3-propylenediamine hydrochloride]", "values": [{"measurement": "IC50", "setting": "[1]", "value": "> 50", "unit": "µM"}]}
{"smiles": "Cc1cncc2cccc(S(=O)(=O)N(CCCN)CCCc3ccccc3)c12.Cl", "note": "[Example 5, N-[(4-Methyl-5-isoquinolyl)sulfonyl]-N-(3-phenylpropyl)-1,3-propylenediamine hydrochloride]", "values": [{"measurement": "vasoconstriction inhibitory action", "setting": "[2]", "value": "significant vasoconstriction inhibitory action"}]}
{"smiles": "NCCN(CCS(=O)(=O)c1ccccc1)S(=O)(=O)c1cccc2cnccc12", "note": "[Example 7, N-[(5-Isoquinolyl)sulfonyl]-N-[2-(phenylsulfonyl)ethyl]ethylenediamine hydrochloride]", "values": [{"measurement": "inhibition in vivo at 1 %, 50 µL", "setting": "intraocular pressure", "value": 30.1, "unit": "%"}, {"measurement": "IC50", "setting": "[1]", "value": "> 50", "unit": "µM"}]}
{"smiles": "Cl.NCCCN(CCCc1ccccc1)S(=O)(=O)c1cccc2c(N)nccc12", "note": "[Example 8, N-[(1-Amino-5-isoquinolyl)sulfonyl]-N-(3-phenylpropyl)-1,3-propylenediamine hydrochloride]", "values": [{"measurement": "vasoconstriction inhibitory action", "setting": "[2]", "value": "significant vasoconstriction inhibitory action"}, {"measurement": "IC50", "setting": "[1]", "value": "> 50", "unit": "µM"}]}
{"smiles": "NCCCOc1cccc2c(N)nccc12", "note": "[Example 10, 3-[(1-Amino-5-isoquinolyl)oxy]propylamine hydrochloride]", "values": [{"measurement": "IC50", "setting": "[1]", "value": "> 30", "unit": "µM"}]}
{"smiles": "Cl.NCCCN(CCS(=O)(=O)c1ccccc1)S(=O)(=O)c1cccc2c(O)nccc12", "note": "[Example 13, N-[(1-Hydroxy-5-isoquinolyl)sulfonyl]-N-[2-(phenylsulfonyl)ethyl]-1,3-propylenediamine hydrochloride]", "values": [{"measurement": "vasoconstriction inhibitory action", "setting": "[2]", "value": "significant vasoconstriction inhibitory action"}]}
{"smiles": "N[C@H]1CC[C@H](Nc2cccc3cnccc23)CC1", "note": "[Example 24, Trans-N-(5-isoquinolyl)-1,4-cyclohexanediamine hydrochloride]", "values": [{"measurement": "inhibition in vivo at 1 %, 50 µL", "setting": "intraocular pressure", "value": 35.7, "unit": "%"}]}
{"smiles": "Cl.c1cc(OC2CCNCC2)c2ccncc2c1", "note": "[Example 27, 4-[(5-Isoquinolyl)oxy]piperidine hydrochloride]", "values": [{"measurement": "inhibition in vivo at 1 %, 50 µL", "setting": "intraocular pressure", "value": 12.5, "unit": "%"}, {"measurement": "inhibition of MLCK", "setting": "[1]", "value": "did not inhibit MLCK"}]}
{"smiles": "Cl.Fc1cncc2cccc(NC3CCNCC3)c12", "note": "[Example 104, 4-(4-Fluoro-5-isoquinolyl)aminopiperidine hydrochloride]", "values": [{"measurement": "inhibition in vivo at 1 %, 50 µL", "setting": "intraocular pressure", "value": 18.8, "unit": "%"}, {"measurement": "inhibition of MLCK", "setting": "[1]", "value": "did not inhibit MLCK"}]}
{"smiles": "CSc1cncc2cccc(NC3CCNCC3)c12.Cl", "note": "[Example 105, 4-(4-Methylthio-5-isoquinolyl)aminopiperidine hydrochloride]", "values": [{"measurement": "inhibition in vivo at 1 %, 50 µL", "setting": "intraocular pressure", "value": 18.8, "unit": "%"}, {"measurement": "vasoconstriction inhibitory action", "setting": "[2]", "value": "significant vasoconstriction inhibitory action"}]}
{"smiles": "Cl.NC1CCC(Nc2cccc3cncc(Br)c23)CC1", "note": "(stereo not drawn) [Example 107, N-(4-Bromo-5-isoquinolyl)-1,4-cyclohexanediamine hydrochloride]", "values": [{"measurement": "intraocular pressure reducing activity", "setting": "intraocular pressure", "value": "significant intraocular pressure reducing activity"}]}
{"smiles": "C=Cc1cncc2cccc(NC3CCNCC3)c12.Cl", "note": "[Example 112, 4-(4-Vinyl-5-isoquinolyl)aminopiperidine hydrochloride]", "values": [{"measurement": "inhibition in vivo at 1 %, 50 µL", "setting": "intraocular pressure", "value": 25, "unit": "%"}, {"measurement": "vasoconstriction inhibitory action", "setting": "[2]", "value": "significant vasoconstriction inhibitory action"}, {"measurement": "inhibition of MLCK", "setting": "[1]", "value": "did not inhibit MLCK"}]}
{"smiles": "CCc1cncc2cccc(NC3CCNCC3)c12.Cl", "note": "[Example 113, 4-(4-Ethyl-5-isoquinolyl)aminopiperidine hydrochloride]", "values": [{"measurement": "intraocular pressure reducing activity", "setting": "intraocular pressure", "value": "significant intraocular pressure reducing activity"}, {"measurement": "vasoconstriction inhibitory action", "setting": "[2]", "value": "significant vasoconstriction inhibitory action"}]}
{"smiles": "Cl.Oc1nccc2c(NC3CCNCC3)cccc12", "note": "[Example 115, 4-(1-Hydroxy-5-isoquinolyl)aminopiperidine hydrochloride]", "values": [{"measurement": "intraocular pressure reducing activity", "setting": "intraocular pressure", "value": "significant intraocular pressure reducing activity"}]}
{"smiles": "Cc1cncc2cccc(N[C@H]3CC[C@@H](N)CC3)c12.Cl", "note": "[Example 120, Cis-N-(4-methyl-5-isoquinolyl)-1,4-cyclohexanediamine hydrochloride]", "values": [{"measurement": "intraocular pressure reducing activity", "setting": "intraocular pressure", "value": "significant intraocular pressure reducing activity"}, {"measurement": "vasoconstriction inhibitory action", "setting": "[2]", "value": "significant vasoconstriction inhibitory action"}, {"measurement": "inhibition of MLCK", "setting": "[1]", "value": "did not inhibit MLCK"}]}
{"smiles": "Cl.NCCCN(CCCc1cccc(C(=O)O)c1)S(=O)(=O)c1cccc2cnccc12", "note": "[Example 128, N-[(5-Isoquinolyl)sulfonyl]-N-[3-(3-carboxy)phenylpropyl]-1,3-propylenediamine hydrochloride]", "values": [{"measurement": "inhibition of MLCK", "setting": "[1]", "value": "did not inhibit MLCK"}]}
{"smiles": "COC(=O)c1ccc(CCCN(CCCN)S(=O)(=O)c2cccc3cnccc23)cc1.Cl", "note": "[Example 130, N-[(5-Isoquinolyl)sulfonyl]-N-[3-(4-methoxycarbonyl)phenylpropyl]-1,3-propylenediamine hydrochloride]", "values": [{"measurement": "inhibition of MLCK", "setting": "[1]", "value": "did not inhibit MLCK"}]}
{"smiles": "Cl.N#Cc1cncc2cccc(O[C@H]3CC[C@H](N)CC3)c12", "note": "[Example 134, Trans-4-[(4-cyano-5-isoquinolyl)oxy]cyclohexylamine hydrochloride]", "values": [{"measurement": "intraocular pressure reducing activity", "setting": "intraocular pressure", "value": "significant intraocular pressure reducing activity"}, {"measurement": "vasoconstriction inhibitory action", "setting": "[2]", "value": "significant vasoconstriction inhibitory action"}]}
{"smiles": "Cl.N[C@H]1CC[C@H](Oc2cccc3cnccc23)CC1", "note": "[Example 135, Trans-4-[(5-isoquinolyl)oxy]cyclohexylamine hydrochloride]", "values": [{"measurement": "intraocular pressure reducing activity", "setting": "intraocular pressure", "value": "significant intraocular pressure reducing activity"}]}
{"smiles": "C=Cc1cncc2cccc(O[C@H]3CC[C@H](N)CC3)c12.Cl", "note": "[Example 136, Trans-4-[(4-vinyl-5-isoquinolyl)oxy]cyclohexylamine hydrochloride]", "values": [{"measurement": "intraocular pressure reducing activity", "setting": "intraocular pressure", "value": "significant intraocular pressure reducing activity"}, {"measurement": "vasoconstriction inhibitory action", "setting": "[2]", "value": "significant vasoconstriction inhibitory action"}]}
{"smiles": "Cc1cncc2cccc(OC3CCNCC3)c12.Cl", "note": "[Example 139, 4-[(4-Methyl-5-isoquinolyl)oxy]piperidine hydrochloride]", "values": [{"measurement": "intraocular pressure reducing activity", "setting": "intraocular pressure", "value": "significant intraocular pressure reducing activity"}, {"measurement": "vasoconstriction inhibitory action", "setting": "[2]", "value": "significant vasoconstriction inhibitory action"}]}
{"smiles": "Cl.Nc1nccc2c(O[C@H]3CC[C@@H](N)CC3)cccc12", "note": "[Example 141, Cis-4-[(1-amino-5-isoquinolyl)oxy]cyclohexylamine hydrochloride]", "values": [{"measurement": "inhibition of MLCK", "setting": "[1]", "value": "did not inhibit MLCK"}]}
{"smiles": "Cl.OCCCN1CCC(Nc2cccc3cnccc23)CC1", "note": "[Example 145, 1-(3-Hydroxypropyl)-4-(5-isoquinolyl)aminopiperidine hydrochloride]", "values": [{"measurement": "intraocular pressure reducing activity", "setting": "intraocular pressure", "value": "significant intraocular pressure reducing activity"}]}
